Results on nine molecules are retold here after PubChem BioAssay (NCI).

Molecules are shown by their SMILES. “And” between values parts separate entries of the source, which are not always exact repeats. Equal entries are not always repeated.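 Compound exposure: 48 hours, 5 concentrations, 96-well plates. At the GI50, growth is halved. TGI: total growth inhibition.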

Test systems include HT29 colon; SK-MEL-5 melanoma; SF-268 CNS; HCT-116 colon; UACC-257 melanoma; K-562 leukemia; NCI-H460 lung; EKVX NSCLC; RPMI-8226 leukemia; MDA-MB-231 breast.
What all share (assay): NCI tumour cell line growth inhibition, 48 h

Consider `CC(=O)/C=C/c1ccc(C#Cc2ccccc2)s1`, for which the GI50 in the assay on HT29 colon was 12 µM; in the assay on SK-MEL-5 melanoma, 11.1 µM; in the assay on SF-268 CNS, 17.4 µM; in the assay with HCT-116 colon it was 3.67 µM; with UACC-257 melanoma it was 19.1 µM; in the assay on K-562 leukemia it was 19.8 µM. In addition, the GI50 in the assay on NCI-H460 lung was 16.2 µM; in the assay with EKVX NSCLC it was 17.7 µM; in the assay on RPMI-8226 leukemia it was 20.7 µM; in the assay with MDA-MB-231 breast, 15 µM. Moreover, the TGI worked out at 25.2 µM in the assay on HT29 colon; 23.1 µM with SK-MEL-5 melanoma; 48.9 µM in the assay with SF-268 CNS; 14.9 µM with HCT-116 colon; 34.3 µM in the assay on UACC-257 melanoma; 56.4 µM in the assay on K-562 leukemia. Further, the TGI in the assay with NCI-H460 lung is 33.3 µM; with EKVX NSCLC, 31.6 µM; in the assay with RPMI-8226 leukemia, 38 µM; with MDA-MB-231 breast, 28.2 µM.
For the molecule `O=C(Nc1ccc(Br)cc1)c1ccc(Cl)c(Cl)c1`, the GI50 in the assay on HT29 colon was 3.42 µM; in the assay on SK-MEL-5 melanoma it was 3.45 µM; with SF-268 CNS, 4.51 µM; in the assay with HCT-116 colon, 2.72 µM; in the assay on UACC-257 melanoma it was 3.69 µM; with K-562 leukemia it was 3.99 µM. Moreover, the GI50 in the assay with NCI-H460 lung is 3.16 µM; in the assay with EKVX NSCLC, 1.99 µM; with RPMI-8226 leukemia, 3.15 µM; in the assay on MDA-MB-231 breast, 3.24 µM. Also, the TGI in the assay with HT29 colon was greater than 100 µM; with SK-MEL-5 melanoma, greater than 100 µM; in the assay on SF-268 CNS, greater than 100 µM; with HCT-116 colon it was 8.07 µM; with UACC-257 melanoma, greater than 89.2 µM; in the assay with K-562 leukemia, greater than 100 µM. Also, the TGI in the assay on NCI-H460 lung was greater than 30.5 µM; with EKVX NSCLC, greater than 100 µM; with RPMI-8226 leukemia, greater than 100 µM; in the assay on MDA-MB-231 breast, greater than 100 µM.
On to `COc1ccc2[nH]c3c4c(ccc3c2c1)C(=O)C=CC4=O`, for which the TGI with HT29 colon came out at 46.9 µM; in the assay with SK-MEL-5 melanoma, 40.1 µM; in the assay on SF-268 CNS it was 36.1 µM; with HCT-116 colon it was 13.9 µM; with UACC-257 melanoma, 27.7 µM; in the assay with K-562 leukemia it was 3.97 µM. The TGI was 54.1 µM in the assay on NCI-H460 lung, 29.9 µM in the assay with EKVX NSCLC, 10.4 µM in the assay on RPMI-8226 leukemia and 35.4 µM in the assay with MDA-MB-231 breast.
For `Cc1c(C2=C(Br)C(=O)N(C)C2=O)c(=O)n(C)c(=O)n1C`, the TGI was 42.2 µM in the assay on HT29 colon; 52.1 µM with SK-MEL-5 melanoma; greater than 100 µM in the assay with SF-268 CNS; 40.9 µM in the assay on HCT-116 colon; 32 µM in the assay with UACC-257 melanoma; 59.7 µM in the assay with K-562 leukemia. The TGI with NCI-H460 lung is greater than 100 µM; in the assay with EKVX NSCLC, 41.8 µM; in the assay with RPMI-8226 leukemia, 46.3 µM; with MDA-MB-231 breast, 65.3 µM.
Regarding `CC(C)CNC(=O)O`, the TGI with HT29 colon, in the assay on SK-MEL-5 melanoma, in the assay on SF-268 CNS, in the assay with HCT-116 colon, in the assay on UACC-257 melanoma and in the assay on K-562 leukemia was greater than 100 µM each time. Besides, the TGI in the assay on NCI-H460 lung, in the assay on EKVX NSCLC, with RPMI-8226 leukemia and in the assay with MDA-MB-231 breast was greater than 100 µM throughout.
On to `COc1ccc2c(c1)[C@@]13CCCC[C@H]1[C@@H](C2)N(C)CC3=O`, for which the TGI in the assay with HT29 colon was 37.5 µM; in the assay with SK-MEL-5 melanoma, 61 µM; in the assay with SF-268 CNS, 35.8 µM; in the assay on HCT-116 colon, 29.7 µM; in the assay with UACC-257 melanoma it was 30.5 µM; in the assay with K-562 leukemia, greater than 100 µM. For the same molecule, the TGI stood at 69.5 µM in the assay on NCI-H460 lung, 43.4 µM with EKVX NSCLC, 96.8 µM with RPMI-8226 leukemia and 36.4 µM with MDA-MB-231 breast.
Regarding `N#CC(=NCCO)C1=C(O)c2ccccc2C1=O`, the TGI in the assay on HT29 colon, with SK-MEL-5 melanoma, in the assay with SF-268 CNS, with HCT-116 colon, in the assay on UACC-257 melanoma and in the assay with K-562 leukemia was greater than 100 µM in each case. Further, the TGI with NCI-H460 lung, in the assay on EKVX NSCLC, in the assay with RPMI-8226 leukemia and with MDA-MB-231 breast was greater than 100 µM in each case.
Take `Oc1cn(-c2ccc(Cl)cc2)nc1-c1n[nH]c(=S)n1C1CCCCC1`: the GI50 is 30.5 µM in the assay on HT29 colon; 0.25 µM in the assay on SK-MEL-5 melanoma; 13.7 µM in the assay with SF-268 CNS; 0.612 µM in the assay on HCT-116 colon; 0.873 µM in the assay on UACC-257 melanoma; less than 0.0427 µM in the assay on K-562 leukemia. Moreover, the GI50 in the assay on NCI-H460 lung is 0.334 µM; in the assay with EKVX NSCLC, 15.5 µM; with RPMI-8226 leukemia, 0.248 µM; with MDA-MB-231 breast, 2.22 µM. The TGI with HT29 colon was greater than 100 µM; in the assay with SK-MEL-5 melanoma, 12.3 µM; in the assay on SF-268 CNS, greater than 100 µM; in the assay on HCT-116 colon it was 39.8 µM; with UACC-257 melanoma, greater than 100 µM; in the assay with NCI-H460 lung it was greater than 100 µM. Further, the results for the TGI in the assay on EKVX NSCLC, in the assay with RPMI-8226 leukemia and with MDA-MB-231 breast were greater than 100 µM, 30.9 µM and greater than 90.7 µM, respectively.
Turning to `COc1cc2c(c(OC)n1)[C@]1(O)[C@H](O)[C@H](CN(C)C)[C@@H](c3ccccc3)[C@]1(c1ccc(C#N)cc1)O2`, the GI50 was less than 0.01 µM with HT29 colon; 0.0206 µM and 0.0196 µM with SK-MEL-5 melanoma; 0.0249 µM and 0.0148 µM in the assay on SF-268 CNS; less than 0.01 µM in the assay on HCT-116 colon; 0.0417 µM and 0.0427 µM in the assay on UACC-257 melanoma; less than 0.01 µM in the assay with K-562 leukemia. Further, the GI50 is less than 0.01 µM in the assay on NCI-H460 lung; 0.0305 µM and 0.0237 µM in the assay on EKVX NSCLC; 0.0151 µM and < 0.01 µM with RPMI-8226 leukemia; 0.0336 µM and 0.0242 µM with MDA-MB-231 breast. Further, the TGI in the assay with HT29 colon is 4.25 µM and 4.04 µM; in the assay with SK-MEL-5 melanoma it was 0.0676 µM and 0.556 µM; in the assay on SF-268 CNS, 2.02 µM and 1.85 µM; with HCT-116 colon, 2.65 µM and 1.7 µM; with UACC-257 melanoma, 2.45 µM and 2.12 µM; in the assay with NCI-H460 lung it was 3.48 µM and 6.88 µM. The TGI with EKVX NSCLC was 2.81 µM and 2.54 µM; with RPMI-8226 leukemia, 0.299 µM and 0.15 µM; with MDA-MB-231 breast, 1.72 µM and 1.48 µM.
